Active and inactive are the calls of the source.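 Rule for the calls: active = caspase luminescence falls with dose and the half-maximal concentration AC50 from the fitted curve is at or below a set limit; inconclusive = flat fit at 30 to 70% signal loss, or invalid fit; inactive = AC50 above the limit, or signal rises instead.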
system: INS-1E cytokine-induced caspase-3/7, Caspase-Glo luminescence, 48 h; test: inhibitors of cytokine-induced caspase-3/7 activity, dose response, orthogonal assay for beta-cell apoptosis protection project, INS-1E rat cells, luminescence (AID 463206)

Row | Compound | AC50
1 | O=[N+]([O-])c1ccc(N2CCN(C(=S)Nc3ccc(F)cc3)CC2)cc1 | > 26 µM (inactive)
2 | CCCC(=O)NC(c1ccc(OC)c(OC)c1)c1cc(Cl)c2cccnc2c1O (stereo not given) | > 26 µM (inactive)
3 | Cc1ccc(O)c(N=Nc2nccs2)c1 | > 26 µM (inactive)
4 | CN(C)S(=O)(=O)c1ccc(Nc2nc(C3CC3)nc3c2nnn3Cc2ccccc2Cl)cc1 | > 26 µM (inactive)
5 | CN1c2ccccc2N(C)C1(C)c1ccccc1 | > 26 µM (inactive)
6 | CC(=O)/C=C1\N(C)c2ccc(C)cc2C1(C)C | > 26 µM (inactive)
7 | Cn1c2c(c(=O)n(C)c1=O)C(C(F)(F)F)(C(F)(F)F)N=C(c1ccc(Cl)cc1)N2 | > 26 µM (inactive)
8 | Cc1cc(C)c(S(=O)(=O)/N=C2/C=C(Sc3ncn[nH]3)C(=O)c3ccccc32)cc1C | > 26 µM (inactive)
9 | CCOc1cc(-c2sc(Nc3cc(C)ccc3OC)n[n+]2-c2ccccc2)ccc1OC | > 26 µM (inactive)
10 | CC(C)c1nc(-c2ccccc2)c(-c2ccccc2)[nH]1 | > 26 µM (inactive)
11 | COc1cc2ccccc2cc1C(=O)Nc1sc2c(c1C(N)=O)CCN(C(C)C)C2 | 9.32 µM
12 | C#CCOCCOCCOCCNc1nc(N2CCN(C(=O)CCCCCCCCCCNC(=O)[C@H](CCCCN)n3cc(CCO)nn3)CC2)nc(N2CCN(C(=O)CCCCCCCCCCNC(=O)[C@H](CCCCN)n3cc(C[C@@H](C)CC)nn3)CC2)n1 | > 26 µM (inactive)
13 | CCOc1ccc2nc(NC(=O)c3ccccn3)sc2c1 | > 26 µM (inactive)
14 | C#CCOCCOCCOCCNc1nc(N2CCN(C(=O)CCCCCCCCCCNC(=O)[C@H]([C@@H](C)CC)n3cc(CCCCN=C(N)N)nn3)CC2)nc(N2CCN(C(=O)CCCCCCCCCCNC(=O)[C@H](CO)n3cc(CCCCCN)nn3)CC2)n1 | > 26 µM (inactive)
15 | C#CCOCCOCCOCCNc1nc(N2CCN(C(=O)CCCCCCCCCCNC(=O)[C@@H](CCSC)n3cc(CCO)nn3)CC2)nc(N2CCN(C(=O)CCCCCCCCCCNC(=O)[C@H]([C@@H](C)CC)n3cc(CCCCCN)nn3)CC2)n1 | > 26 µM (inactive)
16 | C(/CCc1ccccc1)=N\Nc1nc2ccccc2[nH]1 | > 26 µM (inactive)
17 | CCN1c2ccccc2N(C)C1(C)c1ccccc1 (stereo not given) | > 26 µM (inactive)
18 | Cc1ccc(Cl)cc1N1CCN(C(=O)CSc2nnc3n2C(C)(C)Cc2ccccc2-3)CC1 | > 26 µM (inactive)
19 | CC(C)(C)c1cnnn1-c1ccc(/C=N/Nc2ccc([N+](=O)[O-])cc2)cc1 | > 26 µM (inactive)
20 | Cc1ccccc1NC1=C/C(=N\S(=O)(=O)c2cccs2)c2ccccc2C1=O | > 26 µM (inactive)
21 | COc1cc([N+](=O)[O-])ccc1NC(=O)CC1SC(=Nc2ccc(F)cc2)N(CCC2=CCCCC2)C1=O (stereo not given) | > 26 µM (inactive)
22 | Cn1nc(C(C)(C)C)cc1C(=O)NCc1ccc(N2CCCC2=O)cc1 | > 26 µM (inactive)
23 | CCCCC[n+]1ccn(C2=C([O-])c3ccccc3C(=O)/C2=N\S(=O)(=O)c2ccc(Cl)cc2)c1 | > 26 µM (inactive)

Row | Compound | AC50
24 | CN1CCN(c2ccc([N+](=O)[O-])c3no[n+]([O-])c23)CC1 | > 26 µM (inactive)
25 | O=C(Nc1ccc(OC(F)F)cc1)Nc1cccc(C(F)(F)F)c1 | > 26 µM (inactive)
26 | Fc1cccc(Cl)c1-c1nnc2ccc3ccccc3n12 | > 26 µM (inactive)
27 | COc1ccccc1NC(=O)c1cc2cc(Br)ccc2cc1O | > 26 µM (inactive)
28 | Cc1ccc(-c2c[n+]3c(n2-c2ccccc2)SCC3)cc1 | > 26 µM (inactive)
29 | CCCC(=O)NC(c1ccc(C)cc1)c1ccc2cccnc2c1O (stereo not given) | > 26 µM (inactive)
30 | CC(=O)c1sc(NC(=O)C2(F)C(F)(F)C(F)(F)C(F)(F)C(F)(F)C2(F)F)nc1C | > 26 µM (inactive)
31 | O=C(Oc1c(CN2CCOCC2)cc(Cl)c2cccnc12)c1ccccc1 | > 26 µM (inactive)
32 | CCN1/C(=C/c2cccc[n+]2C)Sc2ccc(OC)cc21 | > 26 µM (inactive)
33 | Cc1cc(C(=O)NC2CCCc3c2cnn3-c2ccc(C)c(C)c2)n(C)n1 (stereo not given) | > 26 µM (inactive)
34 | Nc1nonc1-n1nnc(C(=O)N/N=C/c2cc(Br)ccc2O)c1CNc1ccccc1 | > 26 µM (inactive)
35 | COc1cccc(/C=N/NC(=O)CNC(=O)c2cccs2)c1O | > 26 µM (inactive)
36 | COC(=O)C1=C(c2ccc(OCc3ccccc3)cc2)C[C@@H]2CC[C@H]1N2C(=O)NC1CCN(Cc2ccccc2)CC1 | > 26 µM (inactive)
37 | CCn1c(C)nc2cc(C(=O)N/N=C/c3cccc(O)c3O)ccc21 | > 26 µM (inactive)
38 | C#CCOCCOCCOCCNc1nc(N2CCN(C(=O)CCCCCCCCCCNC(=O)[C@H]([C@@H](C)CC)n3cc(CCCCN=C(N)N)nn3)CC2)nc(N2CCN(C(=O)CCCCCCCCCCNC(=O)[C@H](CCCCN)n3cc(C)nn3)CC2)n1 | > 26 µM (inactive)
39 | CCC(=O)NC(c1ccc(Cl)cc1Cl)c1ccc2cccnc2c1O (stereo not given) | > 12 µM (inactive)
40 | O=C(/C=C/c1cccc([N+](=O)[O-])c1)c1ccc([N+](=O)[O-])o1 | > 26 µM (inactive)
41 | CC#CC[N+](C)(C)CCCCCCCC | > 26 µM (inactive)
42 | COc1cccc(C(=O)Oc2c(CN3CCOCC3)cc(Cl)c3cccnc23)c1 | > 26 µM (inactive)
43 | COc1ccc(-c2cc(-c3ccccc3)[n+](C)c(-c3ccccc3)c2)cc1 | > 26 µM (inactive)
44 | Cc1ccc(NC2=CC(=O)C(=O)c3ccccc32)cc1 | > 26 µM (inactive)
45 | COc1ccccc1N1CC(C)(C)C(=O)N(C(=O)c2ccc(Cl)cc2)C1=S | > 12 µM (inactive)

Source: PubChem BioAssay AID463206 (Broad Institute, 2010)
